According to EP0783507B1, “COMPOUNDS USEFUL AS ANTIPROLIFERATIVE AGENTS AND GARFT INHIBITORS” (AGOURON PHARMACEUTICALS, INC., priority 1994, dated 1996):
Where two headings read alike, the source gives them in different places.

What was measured:
L1210 = test: In vitro cell growth inhibition (MTT, modified Mosmann method), L1210; assay type: cell-based; settings: Mus musculus, continuous (72-hour) exposure, mean IC50, read-out: IC50 Cell Culture L1210
Procedure: (§1) All cultures were maintained at 37°C, 5% air-CO2 in a humidified incubator.
(§2) Stock solutions of the inhibitors were prepared in 10 mM sodium bicarbonate in water and stored in 1 ml aliquots at - 20°C for cell culture experiments. Cell growth inhibition was measured by a modification of the method of Mosmann, J. Immunol. Methods 65 (1983), 55-63.
(§3) Mid-log phase cells of each cell line were diluted to 18,500 cells/ml in fresh RPMI growth medium (Mediatech, Washington, DC) supplemented with dialyzed fetal calf serum (Hyclone Laboratories Inc., Logan, UT) and then aliquotted into columns 2 through 12 of 96-well microtiter plates. Column 1 was filled with the same volume ([…]) of fresh medium, without cells, for use as a blank. The plates were then placed in a 37°C, 5% air-CO2 incubator. After 1 to 4 hours, plates were removed from the incubator followed by addition of Compound 1 at 10 x final concentration, […] in binary dilutions, to columns 12 to 4. […] The extent of metabolized MTT was measured spectrophotometrically at 540 nm on a Molecular Devices Vmax kinetic microplate reader. The concentration of drug required to reduce cell growth by 50% as measured by MTT metabolism was determined by interpolation between the O.D. (minus blank) immediately above and below 50% of control O.D. (minus blank).

CCRF-CEM = test: In vitro cell growth inhibition (MTT, modified Mosmann method), CCRF-CEM; assay type: cell-based; settings: Homo sapiens, continuous (72-hour) exposure per table title, Table 2 gives 5 days incubation, mean IC50, read-out: IC50 Cell CultureCCRF-CEM
Procedure: as §1, §2, §3

6C3HED lymphosarcoma = assay type: in vivo; settings: tumor mass vs control on day 11
Procedure: (§4) On day zero, 2 mm^2 trocar fragments of 6C3HED lymphosarcoma were implanted subcutaneously in the axillary region into groups of six C3H/He female mice. Starting on day 1, the test compound was administered intraperitoneally in 40% Encapsin given once daily for nine days. Control animals received identical treatment without test compound. The percentage inhibition given in Table 4 below was calculated by comparing the mass of the control tumors (receiving diluent only) on day 11 to those of animals receiving test compound.

[1] = system: C3H/BA mammary adenocarcinoma; assay type: in vivo; settings: tumor mass vs control on day 14
Procedure: as §4, with “C3H/BA mammary adenocarcinoma” for “6C3HED lymphosarcoma”, “percentage of” for “percentage”, “inhibition” for “inhibition given in Table 4 below”, “14” for “11”

[2] = molecular target: catalytic domain of the human GARFT (Homo sapiens, UniProt P22102); test: biochemical
Sequence of catalytic domain of the human GARFT (P22102 810-1010 limits assumed): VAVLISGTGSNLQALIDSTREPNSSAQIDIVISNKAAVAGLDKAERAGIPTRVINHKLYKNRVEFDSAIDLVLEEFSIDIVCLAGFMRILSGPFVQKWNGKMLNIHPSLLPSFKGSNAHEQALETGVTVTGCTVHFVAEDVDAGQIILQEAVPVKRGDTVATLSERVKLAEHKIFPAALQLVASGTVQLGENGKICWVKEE
Procedure: The GAR-transformylase (GARFT) assay method of Young et al., Biochemistry 23 (1984), 3979-3986, was modified and used as described below. Reactions mixtures contained the catalytic domain of the human GARFT, 0-250 nM of Compound 1, 20 µM glycinamide ribonucleotide (GAR), 10 or 20 µM N^10-formyl-5,8-dideazafolate (FDDF), 50 mM HEPES-KOH, pH 7.5, and 50 mM KCl. The reaction was initiated with the addition of enzyme to a final concentration of 11 nM, followed by monitoring of the increase in absorbance at 294 nm at 20°C (e294 = 18.9 mM^-1 cm^-1).
The GARFT inhibition constant (Ki) was determined from the dependence of the steady-state catalytic rate on inhibitor and substrate concentration. […] The Michaelis constant for FDDF, Km, was determined independently by the dependence of the catalytic rate on FDDF concentration. Data for both the Km and Ki determinations were fitted by nonlinear methods to the Michaelis equation, or the Michaelis equation for competitive inhibition, as appropriate. Data resulting from tight-binding inhibition was analyzed, and Ki determined, by fitting the data to the tight-binding equation of Morrison, Biochem Biophys Acta 185 (1969), 269-286, by nonlinear methods.

Question: With Nc1nc2c(c(=O)[nH]1)SC(CCc1ccc(C(=O)N[C@@H](CCC(=O)O)C(=O)O)s1)CN2 (stereo partly drawn) [Compound 1, 4-[2-(2-Amino-4-oxo-4,6,7,8-tetrahydro-3H-pyrimido[5,4-6][1,4]thiazin-6-yl)-ethyl]-2,5-thienoylamino-L-glutamic acid] as the compound, how does the IC50 (L1210) read?
Answer: The IC50 was 16 nM.

Question: And the IC50 (CCRF-CEM)?
Answer: Its IC50 is 4.3 nM.

Question: What about the “% Inhibition” value (6C3HED lymphosarcoma; 12.5 mg/kg intraperitoneally in 40% Encapsin once daily for nine days) of the same compound?
Answer: Its value is 100%.

Question: What about the “% Inhibition” value (6C3HED lymphosarcoma; 25 mg/kg intraperitoneally in 40% Encapsin once daily for nine days) of the same compound?
Answer: Its value is 100%.

Question: And the “% Inhibition” value (6C3HED lymphosarcoma; 50 mg/kg intraperitoneally in 40% Encapsin once daily for nine days)?
Answer: Its value is “toxic”.

Question: And the “% Inhibition” value ([1]; 5 mg/kg intraperitoneally in 40% Encapsin once daily for nine days)?
Answer: The value was 16%.

Question: And the “% Inhibition” value ([1]; 10 mg/kg intraperitoneally in 40% Encapsin once daily for nine days)?
Answer: The value was 84%.

Question: What about the “% Inhibition” value ([1]; 20 mg/kg intraperitoneally in 40% Encapsin once daily for nine days) of the same compound?
Answer: Its value is 100%.

Question: And the Ki [2]?
Answer: Its Ki is 4.5 nM.
